Several values for one entry are separate records, joined by “and”; a condition that tells them apart may be missing. Equal entries are not always repeated. Entries after “also recorded” stand apart in the source; their conditions may differ. Where a SMILES comes first, the peptide text is derived from it. Where no end group is shown, it is not given here. The star is where a group is joined. 5FAM = O=C1OC2(c3ccc(O)cc3Oc3cc(O)ccc32)c2ccc(C(=O)*)cc21
Columns and labels:
[1] = biological target: T1, complex between ASPP2 Ank-SH3 and Fl-ASPP2 722–737 (Homo sapiens, UniProt Q13625); conditions: previously shown; cited from earlier work
T1 construct: pRSET HLT ASPP2 893–1128 vector; HLT (vector-encoded tag); made in house
T1 sequence (Q13625 893-1128): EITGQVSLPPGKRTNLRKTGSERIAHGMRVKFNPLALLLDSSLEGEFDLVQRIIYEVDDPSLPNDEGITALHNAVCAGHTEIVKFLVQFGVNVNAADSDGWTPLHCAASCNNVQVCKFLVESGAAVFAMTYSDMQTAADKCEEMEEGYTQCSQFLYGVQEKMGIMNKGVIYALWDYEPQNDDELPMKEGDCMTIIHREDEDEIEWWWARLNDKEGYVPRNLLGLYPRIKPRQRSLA
Description: Fl-NFκB 303–332 was previously shown to bind ASPP2 Ank-SH3 and compete with the Pro peptide ASPP2 722–737 [13]. We thus assumed that NFκB 303–332 also binds the SH3 domain of ASPP2, similar to p53CD and the ASPP2 Pro peptide. […] The Bcl-2 BH4 peptide (residues 7–24) binds the RT loop of ASPP2 in different residues than the p53 loop3 [14], [22]. […] However, p53CD displaced Fl-NFκB 303–332 from its complex with ASPP2 Ank-SH3. ...

[2] = biological target: T2, ASPP2 n-src peptide (residues 1089–1097) (Homo sapiens, UniProt Q13625); test: Fluorescence anisotropy titration into Fl-ASPP2 n-src peptide; assay type: binding; conditions: 20 mM Hepes pH 7.0, IS 50 mM, 5 mM βME, data not shown
T2 construct: fluorescein-labeled (Fl) ASPP2 n-src peptide (residues 1089–1097); made in house; host or cells: chemical peptide synthesis

[3] = system: complex between p53CD and Fl-ASPP2 1089–1097; test: Fluorescence anisotropy competition: competitor added to complex of Fl-ASPP2 1089–1097 and p53CD; assay type: binding; conditions: 200 µl of 130 µM competitor added to 87 nM Fl-ASPP2 1089–1097 and 6.5 µM p53CD, 50 mM Hepes pH 7.0, IS = 20 mM, 10 mM βME, 10°C
Experimental: (§1) In the competition experiments, the conditions were as follows: 100–200 µl of competitor peptide or protein were added to a 1200 µl mixture of 83 nM Fl-ASPP2 722–737 and 8.3 µM ASPP2 Ank-SH3 at 20 mM Hepes pH 7.0, IS = 50 mM, 5 mM βME; 200 µl of 130 µM of competitor peptide were added to a 1150-µl mixture of 87 nM Fl peptide ASPP2 1089–1097 and 6.5 µM p53CD at 50 mM Hepes pH 7.0, IS = 20 mM, 10 mM βME; 200 µl of 130 µM of Bcl-2 103–120 or Bcl-2 7–24 were added to a 1100 µl mixture of 87 nM Fl-NFκB 303–332 and 2.25 µM ASPP2 Ank-SH3 or to 1150 µl mixture of 87 nM Fl-ASPP2 722–737 and 4.5 µM ASPP2 Ank-SH3 at 20 mM Hepes pH 7.0, IS = 50 mM, 5 mM βME. The K d of the competitor was calculated as described.

HCT116 p53−/− cells = conditions: cited from earlier work
Description: (§2) It is possible that the peptide inhibits the intramolecular interaction in ASPP2 and thus activates the p53-ASPP2 interaction that ...

[4] = system: R175H and R273H mutant p53; conditions: cited from earlier work
Description: as §2

[5] = system: colorectal carcinoma HCT116 cells; conditions: cited from earlier work
Description: as §2

p53CD = conditions: 37°C, concentration-dependent; cited from earlier work
Description: (§3) The TP53 gene encoding p53 is frequently mutated in human cancers and most of these reported mutations are in the DNA-binding core domain of the protein (p53CD), [25]. Some of these mutations lower the thermodynamic stability of p53, resulting in its unfolding and inactivation.

p53CD mutant I195T = conditions: to levels similar to wild-type; cited from earlier work
Description: as §3

p53 R249S mutant = conditions: back towards wild-type-like structure; cited from earlier work
Description: as §3

[6] = biological target: T3, complex between ASPP2 Ank-SH3 and Fl-NFκB 303–332 (Homo sapiens, UniProt Q13625); test: Fluorescence anisotropy competition: competitor added to complex of Fl-NFκB 303–332 and ASPP2 Ank-SH3; assay type: binding; conditions: Bcl-2 peptides: 200 µl of 130 µM added to 87 nM Fl-NFκB 303–332 and 2.25 µM ASPP2 Ank-SH3, 20 mM Hepes pH 7.0, IS = 50 mM; p53CD: IS = 150 mM; 10°C
T3 construct: pRSET HLT ASPP2 893–1128 vector; HLT (vector-encoded tag); made in house
T3 sequence (Q13625 893-1128): T1 sequence (Q13625 893-1128)
Experimental: as §1

[7] = biological target: T1, complex between ASPP2 Ank-SH3 and Fl-ASPP2 722–737; test: Fluorescence anisotropy competition: competitor added to complex of Fl-ASPP2 722–737 and ASPP2 Ank-SH3; assay type: binding; conditions: 83–87 nM Fl-ASPP2 722–737, 8.3 µM (p53CD) or 4.5 µM (Bcl-2 peptides) ASPP2 Ank-SH3, 20 mM Hepes pH 7.0, IS = 50 mM, 5 mM βME, 10°C
Experimental: as §1

[8] = system: complex between Fl-ASPP2 1089–1097 and ASPP2 722–737; test: Fluorescence anisotropy competition: p53CD added to complex of Fl-ASPP2 1089–1097 and ASPP2 722–737; assay type: binding; conditions: Figure 2A
Experimental: A major p53-interacting site in ASPP2 SH3 is situated in the n-src loop between residues 1089–1097 [14], [27] (Figure 1A, B). […] The ASPP2 Pro peptide (residues 722–737) was titrated into the fluorescein-labeled (Fl) ASPP2 n-src peptide (residues 1089–1097). […] In the opposite experiment p53CD was added to a pre-formed complex between the ASPP2 Pro peptide and the Fl-ASPP2 n-src peptide (Figure 2A).

[9] = biological target: Bcl-2 peptide 7-24 (Homo sapiens) (UniProt P10415); test: fluorescence anisotropy; conditions: cited from earlier work
[10] = biological target: T4, ASPP2 Ank-SH3 (ASPP2 893–1128) (UniProt Q13625 893-1128); test: fluorescence polarisation; fluorescence anisotropy; ASPP2 Ank-SH3 titrated into 100 nM fluorescein-labelled peptide; 10°C; 20 mM Hepes pH 7.0, 5 mM βME; ionic strength 50 mM (told for the competitions done on these complexes); 1:1 binding model; conditions: both partners purified
T4 construct: ASPP2, four ankyrin repeats and SH3 domain, residues 893-1128
T4 sequence (looked up): T1 sequence (Q13625 893-1128)

[11] = biological target: T5, Fl-ASPP2 1089–1097 (fluorescein-labelled ASPP2 n-src loop peptide); test: fluorescence polarisation; fluorescence anisotropy; p53CD or ASPP2 722–737 titrated into 100 nM Fl-ASPP2 1089–1097 in the cuvette; 10°C; 50 mM Hepes pH 7.0, 10 mM NaCl, 10 mM βME; 1:1 binding model; conditions: both partners purified
T5 construct: ASPP2 n-src loop of the SH3 domain, residues 1089-1097; also called Fl-ASPP2 n-src peptide; Fl-n-src peptide; source: synthetic peptide
T5 peptide: fluorescein-REDEDEIEW

[12] = biological target: T4, ASPP2 Ank-SH3 (ASPP2 893–1128); test: fluorescence polarisation; fluorescence anisotropy; ASPP2 Ank-SH3 titrated into Fl-NFκB 303–332; 10°C; 20 mM Hepes pH 7.0, 5 mM βME; ionic strength 150 mM (told for the competition done on this complex); conditions: both partners purified

Molecule: KRTYETFKSIMKKSPFSGPTDPRPPPRRIA [NFκB 303–332]
- Competition of NFκB 303–332 with Pro peptide ASPP2 722–737 for ASPP2 Ank-SH3 [1]: competed
- Binding of NFκB 303–332 to the n-src loop peptide [2]: did not bind
- Displacement of p53CD from its complex with Fl-ASPP2 n-src peptide 1089–1097 by non-labeled peptide [3]: did not compete

Molecule: REDEDEIEW [ASPP2 1089–1097, nine-residue peptide derived from ASPP2 n-src loop (residues 1089–1097), also termed CDB3]
- Sensitization to apoptosis induced by γ-irradiation (HCT116 p53−/− cells): not
- Conformation of R175H and R273H mutant p53 in cells [4]: restored the wild-type conformation
- Sensitization to apoptosis induced by γ-irradiation [5]: sensitize
- Unfolding of p53CD (p53CD): slowed down the unfolding
- Specific DNA binding activity of p53CD mutant I195T (p53CD mutant I195T): restored the specific DNA binding activity
- Structural effects of mutation in p53 R249S (p53 R249S mutant): rescued the structural effects of mutation

Molecule: CC[C@H](C)[C@H](NC(=O)[C@H](CCCNC(=N)N)NC(=O)[C@H](CCCNC(=N)N)NC(=O)[C@@H]1CCCN1C(=O)[C@@H]1CCCN1C(=O)[C@@H]1CCCN1C(=O)[C@H](CCCNC(=N)N)NC(=O)[C@@H]1CCCN1C(=O)[C@H](CC(=O)O)NC(=O)[C@@H](NC(=O)[C@@H]1CCCN1C(=O)CNC(=O)[C@H](CO)NC(=O)[C@H](Cc1ccccc1)NC(=O)[C@@H]1CCCN1C(=O)[C@H](CO)NC(=O)[C@H](CCCCN)NC(=O)[C@H](CCCCN)NC(=O)[C@H](CCSC)NC(=O)[C@@H](NC(=O)[C@H](CO)NC(=O)[C@H](CCCCN)NC(=O)[C@H](Cc1ccccc1)NC(=O)[C@@H](NC(=O)[C@H](CCC(=O)O)NC(=O)[C@H](Cc1ccc(O)cc1)NC(=O)[C@@H](NC(=O)[C@H](CCCNC(=N)N)NC(=O)[C@H](CCCCN)NC(=O)c1ccc2c(c1)C(=O)OC21c2ccc(O)cc2Oc2cc(O)ccc21)[C@@H](C)O)[C@@H](C)O)[C@@H](C)CC)[C@@H](C)O)C(=O)N[C@@H](C)C(N)=O [Fl-NFκB 303–332] (5FAM-KRTYETFKSIMKKSPFSGPTDPRPPPRRIA-NH2)
- Competition of NFκB 303–332 with Pro peptide ASPP2 722–737 for ASPP2 Ank-SH3 [1]: compete

Molecule: p53CD: recombinant p53 DNA-binding core domain, residues 94–312, expressed in E. coli
- Displacement of Fl-NFκB 303–332 from its complex with ASPP2 Ank-SH3 [6]: displaced
- Displacement of Fl-ASPP2 722–737 from its complex with ASPP2 Ank-SH3 [7]: displaced
- Anisotropy change on adding p53CD to pre-formed complex of ASPP2 Pro peptide and Fl-ASPP2 n-src peptide [8]: the final anisotropy level increased

Molecule: NFκB 21–50: unlabeled peptide derived from the ASPP2-binding sites in NFκB (VEIIEQPKQRGMRFRYKCEGRSAGSIPGER)
- Displacement of p53CD from its complex with Fl-ASPP2 n-src peptide 1089–1097 by non-labeled peptide [3]: did not compete

Molecule: RRYRRDFAEMSSQLHLTP [Bcl-2 103–120]
- Displacement of Fl-NFκB 303–332 from its complex with ASPP2 Ank-SH3 [6]: did not displace; also recorded: did not compete
- Displacement of p53CD from its complex with Fl-ASPP2 n-src peptide 1089–1097 by non-labeled peptide [3]: did not compete
- Displacement of Fl-ASPP2 722–737 from its complex with ASPP2 Ank-SH3 [7]: did not displace; also recorded: did not compete

Molecule: YDNREIVMKYIHYKLSQR [Bcl-2 7–24, Bcl2 BH4 derived peptide, residues 7–24]
- Displacement of Fl-NFκB 303–332 from its complex with ASPP2 Ank-SH3 [6]: did not displace; also recorded: did not compete
- Displacement of p53CD from its complex with Fl-ASPP2 n-src peptide 1089–1097 by non-labeled peptide [3]: did not compete
- Displacement of Fl-ASPP2 722–737 from its complex with ASPP2 Ank-SH3 [7]: did not displace; also recorded: did not compete

Molecule: ASPP2 Ank-SH3 Ank-SH3 (from UniProt Q13625)
- Kd [9]: 4700 nM

B1: Fl-ASPP2 722–737 (fluorescein-labelled ASPP2 Pro peptide) (peptide)
peptide: fluorescein-WRKKLSNAPRPLKKRSS
notes: Trp added at the N terminus of the peptide for UV spectroscopy; also called Fl-ASPP2 Pro peptide; source: synthetic peptide
- Kd [10]: 680 nM and 820 nM

B2: ASPP2 722–737 (ASPP2 Pro peptide, non-labelled) (peptide)
peptide: WRKKLSNAPRPLKKRSS
notes: Trp added at the N terminus of the peptide for UV spectroscopy; A natural stretch with one added N-terminal Trp; source: synthetic peptide
- Kd [11]: 500 ± 30 nM

B3: Fl-NFκB 303–332 (fluorescein-labelled NFκB p65 peptide) (peptide)
peptide: fluorescein-KRTYETFKSIMKKSPFSGPTDPRPPPRRIA
notes: also called NFκB peptide; source: synthetic peptide
- Kd [12]: 470 ± 20 nM
- Kd [10]: 130 ± 10 nM

Reference: article PMC3589414, “Regulation of ASPP2 Interaction with p53 Core Domain by an Intramolecular Autoinhibitory Mechanism” (PLoS ONE, 2013)
